Data published in US8318781B2, “G-protein-conjugated receptor agonist” (Japan Science and Technology Agency, priority 2007, dated 2012).

Target: T1, human GPR120 (hGPR120) (Homo sapiens, UniProt Q5NUL3)
T1 construct: expressed in transfected cells; doxycycline-inducible expression vector
T1 sequence (Q5NUL3 1-361): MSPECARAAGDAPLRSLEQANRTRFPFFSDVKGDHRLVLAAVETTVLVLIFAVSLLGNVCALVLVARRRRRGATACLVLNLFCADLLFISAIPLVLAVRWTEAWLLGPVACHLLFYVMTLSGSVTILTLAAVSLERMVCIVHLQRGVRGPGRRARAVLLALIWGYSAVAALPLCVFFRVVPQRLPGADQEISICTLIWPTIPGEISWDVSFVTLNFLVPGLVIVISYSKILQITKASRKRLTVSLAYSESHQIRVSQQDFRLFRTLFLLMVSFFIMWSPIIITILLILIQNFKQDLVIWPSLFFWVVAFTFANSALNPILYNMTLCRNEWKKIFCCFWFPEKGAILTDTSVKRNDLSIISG
Experiment: ERK assay, screening for GPR120 ligands in cell line TXGPR120;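 as to ERK/GPR120 10 μM: signals normalized between DMSO and PMA controls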
Type: cell-based
Settings: for selectivity for GPR120 in ERK assay (in words): GPR120 versus GPR40; for ERK activation for GPR120 (in words) / ERK/GPR120 10 μM / ERK/GPR120 100 μM: TXGPR120 cells; for ERK activation for GPR120 (in words): FIGS. 5-8; for ERK/GPR120 10 μM: ligand 10 μM; for ERK/GPR120 10 μM / ERK/GPR120 100 μM: class relative to LA; for ERK/GPR120 100 μM: ligand 100 μM

Compound	selectivity for GPR120 in ERK assay (in words)	ERK activation for GPR120 (in words)	ERK/GPR120 10 μM	ERK/GPR120 100 μM
CN(C)c1ccc(N(CCOc2ccc(CCCC(=O)O)cc2)c2ccccn2)cc1 [NCG54]	selective for GRP120	strongly activate ERK	+++ (+++ denotes a higher value than LA)	+++ (+++ denotes a higher value than LA)
O=C(O)CCCc1ccc(OCCN(c2ccccc2)c2nccs2)cc1 [NCG46]	selective for GRP120	strongly activate ERK	+++ (+++ denotes a higher value than LA)	+++ (+++ denotes a higher value than LA)
